Patent US20250195536A1, “BICYCLOOCTANE KRAS INHIBITORS” (Incyte Corporation, priority 2023, published 2025)

Columns and labels:
KRAS G12D = KRAS G12D (Homo sapiens, UniProt P01116, G12D); assay: GDP-GTP exchange assay (KRAS G12D); assay type: biochemical; conditions: bodipy-GDP/GppNHp exchange with SOS1; 4 h pre-incubation, 2 h reaction;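 note: one dagger IC50 up to 100 nM and two daggers above 100 nM up to 1 μM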
Procedure, shortened: (§1)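 IC50 came from a four-parameter fit of fluorescence loss (485/520 nm) as SOS1 (150 nM) swapped bodipy-GDP for GppNHp (500 μM) on 2.5 nM KRAS, final concentrations. Compounds were pre-incubated 4 h at r.t. (pH 7.5 Hepes, 10 mM MgCl2); exchange ran 2 h (G12D) or 3 h (G12V).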

KRAS G12V = KRAS G12V (Homo sapiens, UniProt P01116, G12V); assay: GDP-GTP exchange assay (KRAS G12V); assay type: biochemical; conditions: bodipy-GDP/GppNHp exchange with SOS1; 3 h incubation after GppNHp-SOS1;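 note: one dagger IC50 up to 100 nM and two daggers above 100 nM up to 1 μM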
Chain of KRAS G12V (P01116 1-188 isoform P01116-2 G12V): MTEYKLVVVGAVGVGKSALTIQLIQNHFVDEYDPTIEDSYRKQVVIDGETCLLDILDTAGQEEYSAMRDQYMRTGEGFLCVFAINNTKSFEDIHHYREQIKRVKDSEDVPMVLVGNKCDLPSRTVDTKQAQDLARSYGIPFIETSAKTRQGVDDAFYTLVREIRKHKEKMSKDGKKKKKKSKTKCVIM
Procedure, shortened: as §1

[1] = Caco2 assay (permeability, Papp A-B); assay type: in vitro ADME; conditions: human, Caco-2, absorptive direction (A-B), 50 μM test compound, 4% BSA in receiver
Procedure, shortened: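 Absorptive (A-B) Papp: 50 μM test compound in HBSS added to apical side of 22-25-day Caco-2 monolayers (TEER 300 Ω·cm^2), receiver buffer containing 4% BSA. After 120 min at 37 °C, 5% CO2, both sides analysed by LCMS; Papp calculated from flux rate normalized to area and donor amount.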

Chain of KRAS G12D (P01116 1-188 isoform P01116-2 G12D): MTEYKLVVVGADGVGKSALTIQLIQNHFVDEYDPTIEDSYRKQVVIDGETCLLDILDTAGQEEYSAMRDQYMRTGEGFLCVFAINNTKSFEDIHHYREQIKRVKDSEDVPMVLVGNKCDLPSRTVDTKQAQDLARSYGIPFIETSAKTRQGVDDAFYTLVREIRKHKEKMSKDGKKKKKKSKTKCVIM

Compound | G12D_exchange (KRAS_G12D exchange assay IC50) (KRAS G12D) | G12V_exchange (KRAS_G12V exchange assay IC50) (KRAS G12V) | Papp A→B at 120 min, 50 μM [1] [×10⁻⁶ cm/s]
COC(=O)N1C[C@@H]2C[C@H](C1)N(C(=O)C1CC1)[C@H]2c1cc2c(C)nc3c(F)c(-c4cccc(Cl)c4Cl)c(CCC#N)cc3c2n1[C@H]1[C@H]2CN[C@@H]1C2 (atropisomer, axis not shown; (Ra)) [Example 108, Methyl (1 S,5R,7R)-7-((Ra)-1-((1R,4R,5S)-2-azabicyclo[2.1.1]hexan-5-yl)-8-(2-cyanoethyl)-7-(2,3-dichlorophenyl)-6-fluoro-4-methyl-1H-pyrrolo[3,2-c]quinolin-2-yl)-6-(cyclopropanecarbonyl)-3,6-diazabicyclo[3.2.1]octane-3-carboxylate] | † | † | ≤ 0.5
Cc1noc(C)c1S(=O)(=O)N1C[C@@H]2C[C@H](C1)N(C(=O)C1CC1)[C@H]2c1cc2c(C)nc3c(F)c(-c4cccc(Cl)c4Cl)c(CCC#N)cc3c2n1[C@H]1[C@H]2CN[C@@H]1C2 (atropisomer, axis not shown; (Ra)) [Example 110, 3-((Ra)-1-((1R,4R,5S)-2-Azabicyclo[2.1.1]hexan-5-yl)-2-((1 S,5R,7R)-6-(cyclopropanecarbonyl)-3-((3,5-dimethylisoxazol-4-yl)sulfonyl)-3,6-diazabicyclo[3.2.1]octan-7-yl)-7-(2,3-dichlorophenyl)-6-fluoro-4-methyl-1H-pyrrolo[3,2-c]quinolin-8-yl)propanenitrile] | † | † | ≤ 0.5
Cc1nc2c(F)c(-c3cccc(Cl)c3Cl)c(CCC#N)cc2c2c1cc([C@H]1[C@H]3C[C@H](CN(S(=O)(=O)N4CCOCC4)C3)N1C(=O)C1CC1)n2[C@H]1[C@H]2CN[C@@H]1C2 (atropisomer, axis not shown; (Ra)) [Example 111, 3-((Ra)-1-((1R,4R,5S)-2-Azabicyclo[2.1.1]hexan-5-yl)-2-((1 S,5R,7R)-6-(cyclopropanecarbonyl)-3-(morpholinosulfonyl)-3,6-diazabicyclo[3.2.1]octan-7-yl)-7-(2,3-dichlorophenyl)-6-fluoro-4-methyl-1H-pyrrolo[3,2-c]quinolin-8-yl)propanenitrile] | †† | † | ≤ 0.5
Cc1nc2c(F)c(-c3cccc(Cl)c3Cl)c(CCC#N)cc2c2c1cc(C1C3CC(CN(C)C3=O)N1C(=O)C1CC1)n2C1C2CNC1C2 (atropisomer, axis not shown; (Ra)) [Example 112, 3-((Ra)-1-((1R,4R,5S)-2-Azabicyclo[2.1.1]hexan-5-yl)-2-((1R,5R,7R)-6-(cyclopropanecarbonyl)-3-methyl-2-oxo-3,6-diazabicyclo[3.2.1]octan-7-yl)-7-(2,3-dichlorophenyl)-6-fluoro-4-methyl-1H-pyrrolo[3,2-c]quinolin-8-yl)propanenitrile] | †† | † | ≤ 0.5
Cc1nc2c(F)c(-c3cccc(Cl)c3Cl)c(CCC#N)cc2c2c1cc([C@H]1[C@H]3C[C@H](CN(c4ccc(C(F)(F)F)cn4)C3)N1C(=O)C1CC1)n2[C@H]1[C@H]2CN[C@@H]1C2 [Example 30, 3-((Ra)-1-((1R,4R,5S)-2-Azabicyclo[2.1.1]hexan-5-yl)-2-((1 S,5R,7R)-6-(cyclopropanecarbonyl)-3-(5-(trifluoromethyl)pyridin-2-yl)-3,6-diazabicyclo[3.2.1]octan-7-yl)-7-(2,3-dichlorophenyl)-6-fluoro-4-methyl-1H-pyrrolo[3,2-c]quinolin-8-yl)propanenitrile] | † | † | ≤ 0.5
Cc1nc2c(F)c(-c3cccc(Cl)c3Cl)c(CCC#N)cc2c2c1cc([C@H]1[C@H]3C[C@H](CN(c4ccnc(C(=O)N(C)C)c4)C3)N1C(=O)C1CC1)n2[C@H]1[C@H]2CN[C@@H]1C2 [Example 64, 4-((1S,5R,7R)-7-((Ra)-1-((1R,4R,5S)-2-azabicyclo[2.1.1]hexan-5-yl)-8-(2-cyanoethyl)-7-(2,3-dichlorophenyl)-6-fluoro-4-methyl-1H-pyrrolo[3,2-c]quinolin-2-yl)-6-(cyclopropanecarbonyl)-3,6-diazabicyclo[3.2.1]octan-3-yl)-N,N-dimethylpicolinamide] | † | † | ≤ 0.5

Now from value to molecule:

G12D_exchange (KRAS_G12D exchange assay IC50) (KRAS G12D) | G12V_exchange (KRAS_G12V exchange assay IC50) (KRAS G12V) | Papp A→B at 120 min, 50 μM [1] [×10⁻⁶ cm/s] | Compound
††† | † | ≤ 0.5 | Cc1nc2c(F)c(-c3cccc(Cl)c3Cl)c(CCC#N)cc2c2c1cc(C1C3CC(CN(C4CCCCC4)C3=O)N1C(=O)C1CC1)n2C1C2CNC1C2 (atropisomer, axis not shown; (Ra)) [Example 113, 3-((Ra)-1-((1R,4R,5S)-2-Azabicyclo[2.1.1]hexan-5-yl)-2-((1R,5R,7R)-3-cyclohexyl-6-(cyclopropanecarbonyl)-2-oxo-3,6-diazabicyclo[3.2.1]octan-7-yl)-7-(2,3-dichlorophenyl)-6-fluoro-4-methyl-1H-pyrrolo[3,2-c]quinolin-8-yl)propanenitrile]
† | † | ≤ 0.5 | Cc1nc2c(F)c(-c3cccc(Cl)c3Cl)c(CCC#N)cc2c2c1cc([C@H]1[C@@H]3COC[C@@H](C3)N1C(=O)C1CC1)n2[C@H]1[C@H]2CN[C@@H]1C2 (atropisomer, axis not shown; (Ra)) [Example 115, 3-((Ra)-1-((1R,4R,5S)-2-Azabicyclo[2.1.1]hexan-5-yl)-2-((1R,5R,7R)-6-(cyclopropanecarbonyl)-3-oxa-6-azabicyclo[3.2.1]octan-7-yl)-7-(2,3-dichlorophenyl)-6-fluoro-4-methyl-1H-pyrrolo[3,2-c]quinolin-8-yl)propanenitrile]
† | † | ≤ 0.5 | Cc1nc2c(F)c(-c3cccc(Cl)c3Cl)c(CCC#N)cc2c2c1cc([C@H]1[C@@H]3COC(=O)[C@@H](C3)N1C(=O)C1CC1)n2[C@H]1[C@H]2CN[C@@H]1C2 (atropisomer, axis not shown; (Ra)) [Example 116, 3-((Ra)-1-((1R,4R,5S)-2-Azabicyclo[2.1.1]hexan-5-yl)-2-((1R,5R,7R)-6-(cyclopropanecarbonyl)-4-oxo-3-oxa-6-azabicyclo[3.2.1]octan-7-yl)-7-(2,3-dichlorophenyl)-6-fluoro-4-methyl-1H-pyrrolo[3,2-c]quinolin-8-yl)propanenitrile]
† | † | > 1 | Cc1nc2c(F)c(-c3cccc(Cl)c3Cl)c(CCC#N)cc2c2c1cc([C@H]1CCN(c3ccccc3)CCN1C(=O)C1CC1)n2[C@H]1[C@H]2CN[C@@H]1C2 (atropisomer, axis not shown; (Ra)) [Example 117, 3-((Ra)-1-((1R,4R,5S)-2-Azabicyclo[2.1.1]hexan-5-yl)-2-((R)-4-(cyclopropanecarbonyl)-1-phenyl-1,4-diazepan-5-yl)-7-(2,3-dichlorophenyl)-6-fluoro-4-methyl-1H-pyrrolo[3,2-c]quinolin-8-yl)propanenitrile]
† | † | ≤ 0.5 | Cc1nc2c(F)c(-c3cccc(Cl)c3Cl)c(CCC#N)cc2c2c1cc([C@H]1C[C@H]3C[C@H](CN3c3ccccn3)N1C(=O)C1CC1)n2[C@H]1[C@H]2CN[C@@H]1C2 (atropisomer, axis not shown; (Ra)) [Example 118, 3-((Ra)-1-((1R,4R,5S)-2-Azabicyclo[2.1.1]hexan-5-yl)-2-((1R,3R,5R)-2-(cyclopropanecarbonyl)-6-(pyridin-2-yl)-2,6-diazabicyclo[3.2.1]octan-3-yl)-7-(2,3-dichlorophenyl)-6-fluoro-4-methyl-1H-pyrrolo[3,2-c]quinolin-8-yl)propanenitrile]
† | † | ≤ 0.5 | Cc1nc2c(F)c(-c3cccc(Cl)c3Cl)c(CCC#N)cc2c2c1cc([C@H]1C[C@H]3C[C@H](CN3C(=O)c3ccccc3)N1C(=O)C1CC1)n2[C@H]1[C@H]2CN[C@@H]1C2 (atropisomer, axis not shown; (Ra)) [Example 119, 3-((Ra)-2-((1R,3R,5R)-6-Benzoyl-2-(cyclopropanecarbonyl)-2,6-diazabicyclo[3.2.1]octan-3-yl)-1-((1R,4R,5S)-2-azabicyclo[2.1.1]hexan-5-yl)-7-(2,3-dichlorophenyl)-6-fluoro-4-methyl-1H-pyrrolo[3,2-c]quinolin-8-yl)propanenitrile]
† | † | ≤ 0.5 | COC(=O)N1[C@@H]2C[C@@H](CN(c3cc(C(C)(F)F)ncn3)C2)[C@@H]1c1cc2c(C)nc3c(F)c(-c4cccc(Cl)c4Cl)c(CCC#N)cc3c2n1[C@H]1[C@H]2CN[C@@H]1C2 (atropisomer, axis not shown; (Ra)) [Example 124, Methyl (1 S,5R,7R)-7-((Ra)-1-((1R,4R,5S)-2-azabicyclo[2.1.1]hexan-5-yl)-8-(2-cyanoethyl)-7-(2,3-dichlorophenyl)-6-fluoro-4-methyl-1H-pyrrolo[3,2-c]quinolin-2-yl)-3-(6-(1,1-difluoroethyl)pyrimidin-4-yl)-3,6-diazabicyclo[3.2.1]octane-6-carboxylate]
